Experimental data: US20140200210A1, “PHARMACEUTICAL COMPOSITION FOR TREATING PREMATURE EJACULATION AND METHOD FOR TREATING PREMATURE EJACULATION” (CTC BIO, INC., priority 2011, published 2014)
Counter-ions that a name gives are not always drawn.

System: male patients suffering from premature ejaculation
Test: Phase 2b clinical study, effect evaluation: intravaginal ejaculation latency time (IELT)
Format: in vivo, human
Source text: Male patients suffering from premature ejaculation were subject to the following parallel clinical study (Phase 2b) (randomized, double-blind, placebo-controlled and fixed dose study) for evaluating tolerance and determining a proper therapeutic capacity.
• Subjects who passed screening entered a 4-week run-in period, and were randomized in 1:1:1 ratio of 2 groups with clomipramine and 1 group with placebo and subject to a double blind experiment. […] Each subject visited the hospital after taking the test drugs for 4 weeks by on-demand therapy.
Group 0 was administered with a tablet of 15 mg placebo and a tablet of 30 mg placebo, Group 1 was administered with a tablet of 15 mg clomipramine HCl and a tablet of 30 mg placebo, and Group 2 was administered with a tablet of 30 mg clomipramine HCl and a tablet of 15 mg placebo for 4 weeks on-demand at about 2 hours to 6 hours prior to sexual activity. The tablets were orally taken with a glass of water.
Primary effectiveness evaluation variables in this clinical study include an IELT fold change at visit 3 (measuring between 0 and 4 weeks) relative to baseline values (i.e., IELT fold change=Value of IELT measured at visit 3 (0 to 4 weeks)/Value of IELT measured at baseline) in each of Group 0 (with treatment of placebo), Group 1 (with treatment of 15 mg clomipramine HCl) and Group 2 (with treatment of 30 mg clomipramine HCl). […]
(1) After administering placebo and 15 mg of clomipramine, and placebo and 30 mg of clomipramine for the period of 4 weeks, a change (%) of IELT values between 0 to 4 weeks after administration, relative to before administration, was calculated by the equation [Change (%) of IELT Values=(Value of IELT measured at 0 to 4 weeks−Value of IELT measured at baseline)×100/Value of IELT measured at baseline].
(2) After administering placebo and 15 mg of clomipramine, and placebo and 30 mg of clomipramine for the period of 4 weeks, a mean change of IELT values between 0 to 4 weeks after administration was calculated. […]

CN(C)CCCN1c2ccccc2CCc2ccc(Cl)cc21 [clomipramine, clomipramine hydrochloride]
minimum effective dose (case of ITT1): 30 mg
minimum effective dose (cases of ITT2 and ITT3): 15 mg
minimum effective dose (considering overall situations): 15 mg
